Patent publication US5843940A, “Benzothiophene compounds, compositions, and method” (Eli Lilly and Company, priority 1997, dated 1998)
Structures can show the parent of a compound that is named as a salt.

Assays:
[1] = tested on: femur density of ovariectomized rats; assay: Osteoporosis test, bone density in ovariectomized rats; type: in vivo; details: orally administered, 35 days, in 20% hydroxypropyl β-cyclodextrin
Experimental: Following the General Preparation Procedure, infra, the rats are treated daily for 35 days (6 rats per treatment group) and sacrificed by carbon dioxide asphyxiation on the 36th day. The 35 day time period is sufficient to allow maximal reduction in bone density, measured as described herein. At the time of sacrifice, the uteri are removed, dissected free of extraneous tissue, and the fluid contents are expelled before determination of wet weight in order to confirm estrogen deficiency associated with complete ovariectomy. […] The uteri are then placed in 10% neutral buffered formalin to allow for subsequent histological analysis. The right femurs are excised and digitilized x-rays generated and analyzed by an image analysis program (NIH image) at the distal metaphysis. The proximal aspect of the tibiae from these animals are also scanned by quantitative computed tomography. In accordance with the above procedures, compounds of the instant invention and ethynyl estradiol (EE2) in 20% hydroxypropyl β-cyclodextrin are orally administered to test animals. Distal femur metaphysis and proximal tibiae data are compared to intact and ovariectomized test animals. Results are reported as percent protection relative to ovariectomy.

[2] = tested on: uterus of ovariectomized rats; assay: Uterine weight in ovariectomized rats; type: in vivo, female Sprague Dawley rats; details: for Uterine Weight % Inc (increase versus the ovariectomized controls): daily for 4 days, 5 to 6 rats, * p < .05
Excerpt: (§1) Seventy-five day old female Sprague Dawley rats (weight range of 200 to 225 g) were obtained from Charles River Laboratories (Portage, Mich.). The animals were either bilaterally ovariectomized (OVX) or exposed to a Sham surgical procedure at Charles River Laboratories, and then shipped after one week. Upon arrival, they were housed in metal hanging cages in groups of 3 or 4 per cage and had ad libitum access to food (calcium content approximately 0.5%) and water for one week. Room temperature was maintained at 22.2°±1.7° C. with a minimum relative humidity of 40%. The photoperiod in the room was 12 hours light and 12 hours dark.
(§2) Dosing Regimen Tissue Collection. After a one week acclimation period (therefore, two weeks post-OVX) daily dosing with test compound was initiated. 17α-ethynyl estradiol or the test compound were given orally, unless otherwise stated, as a suspension in 1% carboxymethylcellulose or dissolved in 20% cyclodextrin. Animals were dosed daily for 4 days. Following the dosing regimen, animals were weighed and anesthetized with a ketamine:xylazine (2:1, V:V) mixture and a blood sample was collected by cardiac puncture. The animals were then sacrificed by asphyxiation with CO2, the uterus was removed through a midline incision, and a wet uterine weight was determined.
(§3) The data presented in Table 1 below reflects the response of 5 to 6 rats per treatment.

Serum cholesterol = Serum cholesterol analysis in ovariectomized rats; type: in vivo, female Sprague Dawley rats; details: for Serum Cholest. % Dec. (decrease versus ovariectomized controls): daily for 4 days, 5 to 6 rats, * p < .05
Excerpt: as §1, §2
Cholesterol Analysis. Blood samples were allowed to clot at room temperature for 2 hours, and serum was obtained following centrifugation for 10 minutes at 3000 rpm. Serum cholesterol was determined using a Boehringer Mannheim Diagnostics high performance cholesterol assay. Briefly the cholesterol was oxidized to cholest-4-en-3-one and hydrogen peroxide. The hydrogen peroxide was then reacted with phenol and 4-aminophenazone in the presence of peroxidase to produce a p-quinone imine dye, which was read spectrophotemetrically at 500 nm. Cholesterol concentration was then calculated against a standard curve.
as §3

[3] = tested on: Uterine Eosinophil Peroxidase; assay: Uterine Eosinophil Peroxidase (EPO) Assay; type: in vivo, female Sprague Dawley rats; details: for Uterine Eosinophil (Vmax), Eosinophil peroxidase Vmax: daily for 4 days, 5 to 6 rats, * p < .05
Excerpt: as §1, §2
Uterine Eosinophil Peroxidase (EPO) Assay. Uteri were kept at 4° C. until time of enzymatic analysis. The uteri were then homogenized in 50 volumes of 50 mM Tris buffer (pH-8.0) containing 0.005% Triton X-100. Upon addition of 0.01% hydrogen peroxide and 10 mM O-phenylenediamine (final concentrations) in Tris buffer, increase in absorbance was monitored for one minute at 450 nm. The presence of eosonophils in the uterus is an indication of estrogenic activity of a compound. The maximal velocity of a 15 second interval was determined over the initial, linear portion of the reaction curve.
as §3

[4] = tested on: MCF-7 breast adenocarcinoma cells; assay: MCF-7 Proliferation Assay (estrogen dependent breast cancer); type: cell-based; details: Homo sapiens, MCF7, versus control (DMSO), tritiated thymidine
Experimental: MCF-7 breast adenocarcinoma cells (ATCC HTB 22) are maintained in MEM (minimal essential medium, phenol-red free, Sigma St.Louis Mo.) supplimented with 10% fetal bovine serum (FBS) (v/v), L-glutamine (2 mM), sodium pyruvate (1 mM), HEPES (10 mM), non-essential amino acids and bovine insulin (1 ug/mL). Ten days prior to the assay, the MCF-7 cells are switched to maintenance medium supplemented with 10% dextrancoated charcoal stripped fetal bovine serum (DCC-FBS) assay medium in place of the 10% FBS to deplete internal stores of estrogen. MCF-7 cells are removed from the maintenance flasks using a cell dissociating medium (Ca/Mg free HBSS (phenol-red free) supplemented with 10 mM HEPES and 2 mM EDTA. Cells are washed twice with the assay medium and adjusted to 80,000 cells/mL. Approximately […] (8,000 cells) are added to a flat-bottomed microculture well (Costar 3596) and incubated at […] in a 5% CO2 humidified incubator for 48 hours to allow cell adherence and equilibrium after transfer. Serial dilutions of the compounds of formula I or DMSO as a diluent control are prepared in assay medium and […] to triplicate microcultures followed by […] for a final volume of […]. After an additional 48 hours of incubation, the microcultures are pulsed with tritiated thymidine ([…]) for 4 hours. Culture are terminated by freezing at -70° C. for 24 hours followed by thawing and harvesting of microcultures using a Skatron Semiautomatic Cell Harvester. Samples are counted by liquid scintillation. Fifty percent inhibitory concentration of the test drugs (IC50) are determined versus the control (DMSO).

Row | SMILES | loss of femur density after ovariectomy [1] | Uterine Weight % Inc (increase versus the ovariectomized controls) ([2]; 0.1 mg/kg PO) | uterine weight (in words) ([2]; EE2 orally at 0.1 mg/kg/day, versus ovariectomized test animals) | Serum Cholest. % Dec. (decrease versus ovariectomized controls) (Serum cholesterol; 0.1 mg/kg PO) | serum cholesterol (in words) (Serum cholesterol; EE2 orally at 0.1 mg/kg/day) | Uterine Eosinophil (Vmax), Eosinophil peroxidase Vmax ([3]; 0.1 mg/kg PO) | eosinophil infiltration into the uterus (in words) ([3]; stromal layer of ovariectomized rats) | IC50 [4] | Uterine Weight % Inc (increase versus the ovariectomized controls) ([2]; 1.0 mg/kg PO) | Uterine Weight % Inc (increase versus the ovariectomized controls) ([2]; 10.0 mg/kg PO) | Serum Cholest. % Dec. (decrease versus ovariectomized controls) (Serum cholesterol; 1.0 mg/kg PO) | Serum Cholest. % Dec. (decrease versus ovariectomized controls) (Serum cholesterol; 10.0 mg/kg PO) | Uterine Eosinophil (Vmax), Eosinophil peroxidase Vmax ([3]; 1.0 mg/kg PO) | Uterine Eosinophil (Vmax), Eosinophil peroxidase Vmax ([3]; 10.0 mg/kg PO)
1 | C#C[C@]1(O)CC[C@H]2[C@@H]3CCc4cc(O)ccc4[C@H]3CC[C@@]21C [EE2, 17α-ethynyl estradiol, reference compound] | prevents this loss | 118.6% | substantially greater than the uterine weight of ovariectomized test animals | 89.3% | caused a decrease in serum cholesterol | 234.2 | substantial, expected increase in eosinophil infiltration |  |  |  |  |  |  | 
2 | Oc1ccc(-c2sc3cc(O)ccc3c2-c2cccc(OCCN3CCCCC3)c2)cc1 [Example 4, 2-(4--Hydroxyphenyl)-3-[3-[2-(1-piperidinyl)ethoxy]phenyl]-6-hydroxybenzo[b]thiophene hydrochloride] |  | 9.1% |  | 33.3% |  | 4.8 |  | 8 nM | 5.6% | 78.7% | 57.2% | 81.0% | 4.8 | 103.8
3 | COc1ccc(-c2sc3cc(OC)ccc3c2-c2cccc(OCCCCN3CCCCC3)c2)cc1.Cl [Example 3, 2-(4-Methoxyphenyl)-3-[3-[4-(1-piperidinyl)butoxy]phenyl]-6-methoxybenzo[b]thiophene hydrochloride] |  | 23.9% |  | 35.5% |  | 4.8 |  |  | 62.1% | 65.0% | 64.4% | 78.0% | 43.5 | -91.2
4 | COc1ccc(-c2sc3cc(OC)ccc3c2-c2cccc(OCCN3CCCCC3)c2)cc1.Cl [Example 1, 2-(4-Methoxyphenyl)-3-[3-[2-(1-piperidinyl)ethoxy]phenyl]-6-methoxybenzo[b]thiophene hydrochloride] |  | 24% |  | 25.8% |  | 7.5 |  |  | 37.2% | 68.2% | 56.1% | 71.1% | 22.2 | 103.5
5 | Oc1ccc(-c2sc3cc(O)ccc3c2-c2cccc(OCCCN3CCCCC3)c2)cc1 [Example 5] |  |  |  |  |  |  |  | 0.2 nM |  |  |  |  |  | 
6 | Oc1ccc(-c2sc3cc(O)ccc3c2-c2cccc(OCCCCN3CCCCC3)c2)cc1 [Example 6, 2-(4--Hydroxyphenyl)-3-[3-(1-piperidinyl)butoxy]phenyl]-6-hydroxybenzo[b]thiophene hydrochloride] |  |  |  |  |  |  |  | 2 nM |  |  |  |  |  | 
7 | COc1ccc(-c2sc3cc(OC)ccc3c2-c2cccc(OCCCN3CCCCC3)c2)cc1.Cl [Example 2, 2-(4-Methoxyphenyl)-3-[3-[3-(1-piperidinyl)propoxy]phenyl]-6-methoxybenzo[b]thiophene hydrochloride] |  | 20.2% |  | 59.1% |  | 24.0 |  |  | 35.7% | 39.1% | 76.5% | 69.4% | 32.4 | 32.1
8 | Oc1ccc(-c2sc3cc(O)ccc3c2-c2ccc(OCCN3CCCCC3)cc2)cc1 [Compound A, reference compound] |  | 24.6% |  | 45.4% |  | 21.0 |  |  | 64.8% | 41.7% | 68.8% | 65.3% | 49.9 | 55.9
